Assay results taken from patent US8507411B2, “Neoglycorandomization and digitoxin analogs” (priority 2004, dated 2013).
Read-outs that look alike come from different tables or passages of the source.

Legend:
[1] = test system: Du145; experiment: High-throughput calcein AM cytotoxicity assay, Du145; format: cell-based, human; settings: Du145 cells
Text: (§1) Standard errors are depicted with error bars.

[2] = test system: MCF7; experiment: High-throughput calcein AM cytotoxicity assay, MCF7; format: cell-based, human; settings: MCF7 cells
Text: as §1

[3] = test system: HCT-116; experiment: High-throughput calcein AM cytotoxicity assay, HCT-116; format: cell-based, human; settings: HCT-116 cells
Text: as §1

[4] = test system: Hep3B; experiment: High-throughput calcein AM cytotoxicity assay, Hep3B; format: cell-based, human; settings: Hep 3B cells
Text: as §1

[5] = test system: NCI-H460; experiment: High-throughput calcein AM cytotoxicity assay, NCI-H460; format: cell-based, human; settings: NCI-H460 cells
Text: as §1

[6] = test system: A549; experiment: High-throughput calcein AM cytotoxicity assay, A549; format: cell-based, human; settings: A549 cells
Text: as §1

[7] = test system: NCI/ADR-RES; experiment: cells; format: cell-based, human; settings: NCI/ADR-RES cells
Text: (§2) In the assay, live cells were distinguished by the presence of a ubiquitous intracellular enzymatic activity which converts the non-fluorescent cell-permeable molecule calcein AM to the intensely fluorescent molecule calcein, which is retained within live cells. The IC50 value for each library member represents at least six replicates of dose-response experiments conducted over five concentrations using two-fold dilutions. […] Standard errors are depicted with error bars. Numerical values and corresponding error values can be found in Table 4. Du145: […]; MCF7: human breast carcinoma; HCT-116: human colon carcinoma, Hep3B: human liver carcinoma; SF-268: human CNS glioblastoma; SK-OV-3: human ovary adenocarcinoma; NCI-H460: human lung carcinoma; A549: human lung adenocarcinoma; NCI/ADR-RES: human breast carcinoma; NmuMG: mouse mammary normal epithelial.
(§3) Cell Culture: All cell lines except NmuMG were maintained in RPMI 1640 medium from InVitrogen (Cat No. 11875-085) supplemented with 10% w/v fetal bovine serum (FBS) from ICN (Cat No. 2916154) and penicillin-streptomycin (PS) (100 U/mL and 100 μg/mL) from InVitrogen (Cat No. 15140-122). NmuMG cells were maintained in DMEM medium from InVitrogen (Cat No. 11965-084) supplemented with 10% w/v fetal bovine serum (FBS) from ICN (Cat No. 2916154), 10 μg/ml insulin (InVitrogen Cat No 12585-014), and penicillin-streptomycin (PS) (100 U/mL and 100 μg/mL) from InVitrogen (Cat No. 15140-122). Cells were harvested by trypsinization using 0.25% w/v trypsin and 0.1% w/v EDTA from InVitrogen (Cat No. 15-050-057) and then counted in a hemocytometer in duplicate with better than 10% agreement in field counts. Cells were plated at a cell density of 10,000-15,000 cells/well of each Corning Costar 96-well black tissue culture treated microtiter plate (Fisher Cat No. 07-200-627). Cells were grown for 1 h at 37° C., with 5% CO2 in a humidified incubator to allow cell attachment to occur before compound addition.
(§4) Library Member Handling and Preparation for Cytotoxicity Assays: Library members were stored at −20° C. under dessicating conditions before the assay. Library member stocks (100×) were prepared in Corning Costar polypropylene 96-well V-bottom polypropylene microtiter plates (Fisher Cat No. 07-200-695). Five serial 1:2 dilutions were made with anhydrous DMSO at 100× the final concentration used in the assay.
(§5) Library Member Addition: The library member-containing plates were diluted 1:10 with complete cell culture media. The 10× stocks (10 μL) were added to the attached cells using a Biomek FX liquid handler (Beckman-Coulter). Library member stocks (10 μL) were added to 90 μL of cells in each plate to insure full mixing of stocks with culture media using a Beckman FX liquid handler with 96-well head.
(§6) Determination of Cytotoxicity: Cells were incubated with the library members for 72 h before fluorescence reading. Test plates were removed from the incubator and washed 1× in sterile PBS to remove serum containing calcium esterases. Calcein AM reagent (30 μL, […]) was added and the cells were incubated for 30 min at 37° C. Plates were read for emission using a fluorescein filter (excitation 485 nm, emission 535 nm).
(§7) IC50 Calculation: For each library member, at least six dose response experiments were conducted. […] To calculate IC50, percent inhibitions were plotted as a function of log [concentration] and then fit to a four-parameter logistic model that allowed for a variable Hill slope using XLfit 4.1.
(§8) Cytotoxicity Assays. All cell lines except NmuMG were maintained in RPMI 1640 medium supplemented with 10% w/v fetal bovine serum (FBS) and penicillin-streptomycin (PS) (100 U/mL and 100 μg/mL).

[8] = test system: SF-268; experiment: cells; format: cell-based, human; settings: SF-268 cells
Text: as §2, §3, §4, §5, §6, §7, §8

[9] = test system: SK-OV-3; experiment: cells; format: cell-based, human; settings: SK-OV-3 cells
Text: as §2, §3, §4, §5, §6, §7, §8

[10] = test system: NmuMG; experiment: cells; format: cell-based, mouse
Text: as §2, §3, §4, §5, §6, §7, §8

[11] = NmuMG mouse mammary normal epithelial control line, read-out: IC50, NmuMG
[12] = NmuMG cells (mouse mammary normal epithelial control line), read-out: IC50

| SMILES | IC50 ([1]; read-out: IC50, Du145) [µM] | IC50 ([2]; read-out: IC50, MCF7) [µM] | IC50 ([3]; read-out: IC50, HCT-116) [µM] | IC50 ([4]; read-out: IC50, Hep 3B) [µM] | IC50 ([5]; read-out: IC50, NCI-H460) [µM] | IC50 ([6]; read-out: IC50, A549) [µM] | IC50 ([7]; read-out: IC50, NCI/ADR-RES) [µM] | IC50 ([8]; read-out: IC50, SF-268) [µM] | IC50 ([9]; read-out: IC50, SK-OV-3) [µM] | IC50 [10, 11] [µM] | IC50 ([1]; read-out: IC50) [µM] | IC50 ([2]; read-out: IC50) [µM] | IC50 ([3]; read-out: IC50) [µM] | IC50 ([4]; read-out: IC50) [µM] | IC50 ([5]; read-out: IC50) [µM] | IC50 ([6]; read-out: IC50) [µM] | IC50 ([7]; read-out: IC50) [µM] | IC50 ([8]; read-out: IC50) [µM] | IC50 ([9]; read-out: IC50) [µM] | IC50 [10, 12] [µM] |
| --- | --- | --- | --- | --- | --- | --- | --- | --- | --- | --- | --- | --- | --- | --- | --- | --- | --- | --- | --- | --- |
| CON(C1CCC2(C)C(CCC3C2CCC2(C)C(C4=CC(=O)OC4)CCC32O)C1)C1OC(CO)C(O)C(O)C1O [42β, L-glucoside] | 1.3 | 0.6 | 0.9 | 0.9 | 1.3 | 0.8 | 0.55 | 1.9 | 1 | 1.2 | – | – | – | – | – | – | – | – | – | – |
| CON(C1CCC2(C)C(CCC3C2CCC2(C)C(C4=CC(=O)OC4)CCC32O)C1)C1OCC(O)C(O)C1O [6α, D-riboside] | > 25 | > 25 | > 25 | > 25 | > 25 | > 25 | > 25 | > 25 | > 25 | > 25 | – | – | – | – | – | – | – | – | – | – |
| CON(C1CCC2(C)C(CCC3C2CCC2(C)C(C4=CC(=O)OC4)CCC32O)C1)C1OC(C)C(O)C(O)C1O [8α, D-fucoside] | > 25 | > 25 | > 25 | > 25 | > 25 | > 25 | > 25 | > 25 | > 25 | > 25 | – | – | – | – | – | – | – | – | – | – |
| CON(C1CCC2(C)C(CCC3C2CCC2(C)C(C4=CC(=O)OC4)CCC32O)C1)C1OC(CO)C(O)C(O)C1NC(C)=O [34β, N-acetyl-D-galactosaminoside] | > 25 | > 25 | > 25 | 17 | 20 | > 25 | 6.4 | > 25 | 17 | > 25 | – | – | – | – | – | – | – | – | – | – |
| CON(C1CCC2(C)C(CCC3C2CCC2(C)C(C4=CC(=O)OC4)CCC32O)C1)C1OC(CO)C(OC2OC(CO)C(O)C(O)C2O)C(O)C1O (stereo not drawn) [37β, maltoside] | 4.4 | > 25 | 24 | 7 | 6.1 | 4.4 | 4.4 | 6 | 5 | – | – | – | – | – | – | – | – | – | – | – |
| CON(C1CCC2(C)C(CCC3C2CCC2(C)C(C4=CC(=O)OC4)CCC32O)C1)C1OCC(O)C(O)C1O [15α, D-lyxoside] | > 25 | > 25 | > 25 | > 25 | > 25 | > 25 | > 25 | > 25 | > 25 | > 25 | – | – | – | – | – | – | – | – | – | – |
| C[C@]12CC[C@H](O[C@@H]3O[C@H](CO)[C@@H](O)[C@H](O)[C@H]3O)C[C@H]1CC[C@@H]1[C@@H]2CC[C@]2(C)[C@@H](C3=CC(=O)OC3)CC[C@]12O [43β, O-D-glucoside] | 0.22 | 0.7 | 0.6 | 0.21 | 0.39 | 0.29 | 0.19 | 0.22 | 0.4 | > 25 | – | – | – | – | – | – | – | – | – | – |
| CON(C1CCC2(C)C(CCC3C2CCC2(C)C(C4=CC(=O)OC4)CCC32O)C1)C1OCC(O)C(O)C1O [32α, L-arabinoside] | – | – | – | – | – | – | – | – | – | – | > 25 | > 25 | > 25 | > 25 | > 25 | > 25 | > 25 | > 25 | > 25 | > 25 |
| CON(C1CCC2(C)C(CCC3C2CCC2(C)C(C4=CC(=O)OC4)CCC32O)C1)C1OC(CF)C(O)C(O)C1O [13α, 6-deoxy-6-fluoro-D-glucoside] | > 25 | > 25 | > 25 | > 25 | > 25 | > 25 | > 25 | > 25 | > 25 | > 25 | – | – | – | – | – | – | – | – | – | – |
| CON(C1CCC2(C)C(CCC3C2CCC2(C)C(C4=CC(=O)OC4)CCC32O)C1)C1OCC(O)C(O)C1O [24α, D-xyloside] | > 25 | > 25 | > 25 | > 25 | > 25 | > 25 | – | – | – | – | – | – | – | – | – | – | – | – | – | – |
| CON(C1CCC2(C)C(CCC3C2CCC2(C)C(C4=CC(=O)OC4)CCC32O)C1)C1OC(CO)C(OC2OC(CO)C(O)C(O)C2O)C(O)C1O (stereo not drawn) [36β, lactoside] | – | > 25 | > 25 | 26 | > 25 | 24 | 13 | > 25 | 19 | > 25 | – | – | – | – | – | – | – | – | – | – |
| CON(C1CCC2(C)C(CCC3C2CCC2(C)C(C4=CC(=O)OC4)CCC32O)C1)C1OC(CO)C(OC2OC(CO)C(O)C(O)C2O)C(O)C1O (stereo not drawn) [37α, maltoside] | – | – | – | – | – | – | – | – | – | – | > 25 | – | – | > 25 | – | > 25 | > 25 | – | > 25 | > 25 |
| CON(C1CCC2(C)C(CCC3C2CCC2(C)C(C4=CC(=O)OC4)CCC32O)C1)C1OCC(O)C(O)C1O [23α, L-xyloside] | > 25 | > 25 | > 25 | > 25 | > 25 | > 25 | – | – | – | – | – | – | – | – | – | – | – | – | – | – |
